Test system: Mycobacterium tuberculosis H37Rv growth inhibition, no glycerol
Assay: Confirmatory growth inhibition assay, Mycobacterium tuberculosis H37Rv, absence of glycerol (AID 449764);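 note: growth read after 7 days of incubation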
Conditions: for IC90: measured here: IC90 growth inhibition

SMILES: Cc1sc2ncnc(Oc3ccc(-n4ccnc4)cc3)c2c1C
- IC50: 39.1 µM
- IC90: 61 µM

SMILES: COc1ccc(-c2nnc(NC(=O)c3ccc([N+](=O)[O-])o3)o2)c(OC)c1
- IC50: 6.13 µM
- IC90: 14 µM

SMILES: CC(C)(C)c1ccc(C(=O)NNc2cc(N3CCCCC3)nc(N3CCCCC3)n2)cc1
- IC50: 62.7 µM
- IC90: 74.4 µM

SMILES: CC(=O)c1cccc2c(O)c(C3=Nc4ccccc4C3=O)[nH]c12
- IC50: 11.5 µM
- IC90: 12.9 µM

SMILES: COc1cc(C2c3cc4c(cc3C(OC3OC5COC(c6cccs6)OC5C(O)C3O)C3COC(=O)C23)OCO4)cc(OC)c1O (centres undefined)
- IC50: 27.6 µM
- IC90: 35.4 µM

SMILES: CCOc1ccc(/C=N/Nc2ccc(Cl)nn2)c(O)c1
- IC50: 5.87 µM
- IC90: 6.71 µM

SMILES: Oc1ccc(C[C@H]2CNCCN2CCCCC2CCCCC2)cc1
- IC50: 40 µM
- IC90: 55.3 µM

SMILES: NC(=S)N=Nc1ccc(NN=C(N)N)cc1
- IC50: 19.3 µM
- IC90: 27.6 µM

SMILES: CCOC(=O)c1csc(-c2snnc2C)n1
- IC50: 28.4 µM
- IC90: > 100 µM

SMILES: CC[C@H](C)[C@@H]1O[C@@]2(C=CC1C)CC1C[C@@H](CC=C(C)C(O[C@H]3CC(OC)C(O[C@H]4CC(OC)C(O)C(C)O4)C(C)O3)C(C)C=CC=C3CO[C@@H]4C(O)C(C)=C[C@@H](C(=O)O1)[C@]34O)O2 (some centres undefined)
- IC50: 16.5 µM
- IC90: 27.3 µM

SMILES: O=C(C/C=N\OCc1ccc([N+](=O)[O-])cc1)Nc1ccc(F)cc1F
- IC50: 82.9 µM
- IC90: > 100 µM

SMILES: CCCC12CN3CC(CCC)(CN(C1)C3c1ccccn1)C2=O (centres undefined)
- IC50: 9.71 µM
- IC90: > 100 µM

SMILES: Cc1ccc(-c2csc(N3CCN(CCCn4c(-c5ccncc5)nc5ccccc54)CC3)n2)cc1
- IC50: 29.7 µM
- IC90: 48.3 µM

SMILES: COC(=O)c1ccc(-c2ncc(-c3cccc4ccccc34)o2)cc1
- IC50: 80.3 µM
- IC90: > 100 µM

SMILES: C/C(=N\NC(N)=S)C1C2C3CC4C5CC(C42)C1C53 (centres undefined)
- IC50: 22.1 µM
- IC90: 31.8 µM

SMILES: COc1cc(NC(=O)c2cnc(N)s2)cc(C(=O)Nc2cccc(C(F)(F)F)c2)c1
- IC50: 85.9 µM
- IC90: > 100 µM

SMILES: Oc1[nH]c2ccccc2c1N=NC(=S)N1CCOCC1
- IC50: 22.9 µM
- IC90: 24.3 µM

SMILES: O=c1c(C=NCCN2CCNCC2)c(O)n(C2CCCCC2)c(=O)n1C1CCCCC1
- IC50: 28.4 µM
- IC90: 32.5 µM

SMILES: CCc1ccc(/C=C2/C(=O)N(C)C(=S)N2CC(=O)OC)s1
- IC50: 4.81 µM
- IC90: 6.97 µM

SMILES: COc1ccc(CN2CCN(C(c3ccc(F)cc3)c3ccc(F)cc3)CC2)c(OC)c1OC
- IC50: 22.9 µM
- IC90: 40.5 µM

SMILES: C=C1C(=O)O[C@@H]2C[C@@H](C)[C@@H]3C4OC4C(=O)[C@@]3(C)[C@@H](O)[C@H]12 (some centres undefined)
- IC50: 10.5 µM
- IC90: 13 µM

SMILES: Cc1cc(=O)oc2cc(Oc3ccc([N+](=O)[O-])cc3C(F)(F)F)ccc12
- IC50: 50 µM
- IC90: > 100 µM

SMILES: COc1ccccc1NC(=O)C(C)OC(=O)/C=C/c1ccc2ccccc2n1 (centres undefined)
- IC50: 6.99 µM
- IC90: 13.1 µM

SMILES: C[C@]12C=CC(=O)C=C1CC[C@@H]1C2=CC[C@]2(C)[C@@H](C(=O)CN3CCN(c4cc(N5CCCC5)nc(N5CCCC5)n4)CC3)CC[C@@H]12
- IC50: 38.5 µM
- IC90: 55.9 µM

SMILES: CCc1cc2c(=O)n(C(C)C(=O)OC3CCCCC3)cnc2s1 (centres undefined)
- IC50: 24.1 µM
- IC90: 52 µM

SMILES: CC(=O)c1ccc(-n2cc(-c3ccc(C(C)(C)C)cc3)[n+]3c2SCCC3)cc1
- IC50: 20.3 µM
- IC90: 26.9 µM

SMILES: C=C(C)C1CC=C(CN2CCN(Cc3ccccc3)CC2)CC1 (centres undefined)
- IC50: 17.8 µM
- IC90: 22 µM

SMILES: O=C(/C=C\c1cccs1)N1CCN(Cc2ccc3c(c2)OCO3)CC1
- IC50: 0.6 µM
- IC90: 1.45 µM

SMILES: CCC(C)NC(=O)c1cn(CC)c2cc(N3CCN(C(=O)c4ccco4)CC3)c(F)cc2c1=O (centres undefined)
- IC50: 23.5 µM
- IC90: 29.7 µM

SMILES: CSCCOC(=O)COc1ccc(/C=N/NC(=O)c2c(Cl)cnn2C)cc1
- IC50: 19.6 µM
- IC90: 37.7 µM

SMILES: CC1(C)Cc2ccccc2C2=NNC(=O)C2=N1
- IC50: 11.2 µM
- IC90: 15.1 µM

SMILES: CCCCOc1ccc(-c2nnn(C(C)C(=O)OCC)n2)cc1 (centres undefined)
- IC50: 2.8 µM
- IC90: 8.73 µM

SMILES: c1ccc(CN2CCC3(CCCc4ccccc43)CC2)cc1
- IC50: 12.2 µM
- IC90: 15.8 µM

SMILES: O=c1[nH]c(CN2CC=C(c3ccccc3)CC2)nc2cc(C(F)(F)F)ccc12
- IC50: 93.7 µM
- IC90: 98.9 µM

SMILES: CCOC(=O)N/N=C(/C)c1ccc([N+](=O)[O-])o1
- IC50: 43.1 µM
- IC90: > 100 µM

SMILES: O=C(NCc1ccccn1)C(=O)Nc1nc(C23CC4CC(CC(C4)C2)C3)cs1
- IC50: 6.5 µM
- IC90: 14.7 µM

SMILES: CCCCNc1nc(N(C)c2ccccc2)nc(-n2ccnc2)n1
- IC90: > 100 µM

SMILES: CCOC(=O)C1CCN(CC(O)COc2ccc(C(C)(C)CC)cc2)CC1 (centres undefined)
- IC50: 23.2 µM
- IC90: 26.5 µM

SMILES: Cc1cc(-c2cc(-c3ccccc3)on2)nc(NC2CCCC2)n1
- IC50: 34.5 µM
- IC90: 56.6 µM

SMILES: CCOC(=O)c1c(C)[nH]c(N=Nc2ccc(OC)cc2)c1C
- IC50: 11.3 µM
- IC90: > 25 µM

SMILES: CCCCOc1ccc(Br)cc1/C(C)=N/NC1=NCCN1
- IC50: 22.4 µM
- IC90: 31.8 µM

SMILES: O=C1C(Br)=Cc2cccc3cccc1c23
- IC50: < 0.2 µM
- IC90: < 0.2 µM

SMILES: Cc1cc(-c2c(C)[nH]n(-c3ccccc3)c2=O)n[nH]1
- IC50: 39.4 µM
- IC90: > 100 µM

SMILES: Cc1ccc(C)c(NC(=O)c2cc(-c3ccccc3)nn2-c2ccccc2)c1
- IC50: 34.6 µM
- IC90: 55.9 µM

SMILES: Cc1nc2ccc(NC(=O)c3ccc([N+](=O)[O-])cc3[N+](=O)[O-])cc2s1
- IC50: 35.7 µM
- IC90: > 100 µM

SMILES: Cn1c(NC(=S)Nc2ccccc2)nc2ccccc21
- IC50: 5.8 µM
- IC90: 6.33 µM

SMILES: Clc1ccc(NNc2ccnc3cc(Cl)ccc23)cc1
- IC50: 15.4 µM
- IC90: 19.9 µM

SMILES: O=C(OCc1ccccc1F)c1cnc(Cl)c(Cl)c1
- IC50: 22 µM
- IC90: 55 µM

SMILES: Cc1ccc(C)c(N2CCN(C(=S)Nc3ccc4nc(N5CCN(C)CC5)cc(C)c4c3)CC2)c1
- IC50: 35.7 µM
- IC90: 55.9 µM

SMILES: COc1ccccc1C(=O)NNC(=O)C(=O)NCc1ccccc1
- IC50: 22.8 µM
- IC90: 40.6 µM

SMILES: CC(C)OC(=O)CSc1nc2ccccc2s1
- IC50: 22.1 µM
- IC90: 36.7 µM

SMILES: N[C@@H](CCl)C(=O)O
- IC50: 35.4 µM
- IC90: 55.2 µM

SMILES: OC(CNCCc1ccc(C(F)(F)F)cc1)COC(c1ccccc1)c1ccccc1 (centres undefined)
- IC50: 19.7 µM
- IC90: 23.1 µM

SMILES: Cc1cccc(C(=O)NNC(=S)NC(=O)c2ccccc2)c1
- IC50: 1.56 µM
- IC90: 2.69 µM

SMILES: CCN(CC)S(=O)(=O)c1ccc2[nH]cc(C(=O)NCCC3=CCCCC3)c(=O)c2c1
- IC50: 91.7 µM
- IC90: > 100 µM

SMILES: S=C(Nc1ccc(Cl)cc1)NC1CC2CCC(C1)N2Cc1ccccc1 (centres undefined)
- IC50: 63.1 µM
- IC90: 95.6 µM

SMILES: O=S1(=O)CCC(N=Cc2ccc(-c3ccc(Cl)cc3)o2)C1 (centres undefined)
- IC90: > 100 µM

SMILES: Cc1ccc(C)c(-c2nn(-c3cc(N4CCN(CCO)CC4)ccc3[N+](=O)[O-])c(=O)c3ccccc23)c1
- IC50: 22.6 µM
- IC90: 25.7 µM

SMILES: O=C(OCC(=O)c1c[nH]c2ccccc12)c1cc(Br)ccc1O
- IC50: 11.2 µM
- IC90: 13.1 µM

SMILES: CC1Cc2ccccc2N1C(=S)NC(=O)c1ccc(Cl)cc1Cl (centres undefined)
- IC50: 17 µM
- IC90: > 100 µM

SMILES: O=C(OCC(=O)N1CCCCC1)c1cc2ccccc2cc1O
- IC50: 2.95 µM
- IC90: 3.42 µM

SMILES: O=[N+]([O-])c1ccc(C2Oc3ccccc3C3CC(c4ccccc4)=NN32)s1 (centres undefined)
- IC50: 7.13 µM
- IC90: 9.52 µM

SMILES: Cc1ccc(Cl)cc1N1CCN(C(=O)C2CCC(=O)N(C3CCCCCC3)C2)CC1 (centres undefined)
- IC50: 28.7 µM
- IC90: 40.4 µM

Reference: PubChem BioAssay AID449764 (Southern Research Specialized Biocontainment Screening …, 2010)
